Source: patent publication US20240139147A1, “METHOD FOR IMPROVING BIOAVAILABILITY OF NAD+ DERIVATIVES” (HOBOOMLIFE BIO-TECHNOLOGY (SHENZHEN) CO., LTD., priority 2022, published 2024)

Columns and labels:
Format in all cases: in vivo
Conditions in all cases: SD rats, intragastric; for NAD+ level in blood: 100 mg/kg NMN and/or 10 mg/kg quercetin
[1] = tested on: NAD+; test: Increasing the level of NAD+ by controlled-release NMN microspheres 1-3, blood NAD+ by HPLC (Example 3)
Method: (§1) 28 SD rats weighing about 200 g were purchased, and an experiment was carried out after one week of adaptive feeding. The 28 rats were divided into 7 groups, 4 rats per group (half male and half female). The rats in group 1 were not treated, the rats in group 2 were administered intragastrically with 100 mg/kg of NMN, the rats in group 3 were administered intragastrically with 10 mg/kg of quercetin, the rats in group 4 were administered intragastrically with 100 mg/kg of NMN and 10 mg/kg of quercetin at the same time, the rats in group 5 were administered intragastrically with the controlled-release microspheres 1 containing 100 mg/kg of NMN and 10 mg/kg of quercetin, the rats in group 6 were administered intragastrically with the controlled-release NMN microspheres 2 containing 100 mg/kg of NMN and 10 mg/kg of quercetin, and the rats in group 7 were administered intragastrically with the controlled-release NMN microspheres 3 containing 100 mg/kg of NMN and 10 mg/kg of quercetin.
Blood was collected from the rat in each groups via the tail vein at time points of 2 h, 2.5 h, 3 h, 3.5 h, 4 h, 4.5 h, 5 h, 5.5 h, and 6 h, respectively, after intragastric administration of corresponding microspheres, and 0.1 mL of blood was collected each time by each rat. After the vein blood collected from the rat in each groups at each time point was treated, the NAD+ level in the blood sample was tested by high performance liquid chromatography (HPLC). The test results of 4 rats in each group were averaged. […] Different parameters are set in the preparation processes of the controlled-release NMN microsphere 1, the controlled-release NMN microsphere 2, and the controlled-release NMN microsphere 3, so the time intervals between release peaks of quercetin and release peaks of NMN in the microspheres are different. A time difference between a peak of the releasing of quercetin and a peak of the releasing of NMN in the controlled-release NMN microsphere 1 is 1 h-2 h, a time difference between a peak of the releasing of quercetin and a peak of the releasing of NMN in the controlled-release NMN microsphere 2 is 0.5 h-1.5 h, and a time difference between a peak of the releasing of quercetin and a peak of the releasing of NMN in the controlled-release NMN microsphere 3 is 0 h-1 h.

[2] = tested on: NAD+; test: Increasing the level of NAD+ by controlled-release NMN microspheres 2, 5, 6, blood NAD+ by HPLC (Example 9)
Method: as §1, with “the controlled-release NMN microspheres 2” for “the controlled-release microspheres 1”, “NMN microspheres 2 containing 100” for “controlled-release microspheres 1 containing 100”, “NMN microspheres 5 containing 100” for “NMN microspheres 2 containing 100”, “NMN microspheres 6 containing 100” for “NMN microspheres 3 containing 100”
Blood was collected from the rat in each groups via the tail vein at time points of 2 h, 2.5 h, 3 h, 3.5 h, 4 h, 4.5 h, 5 h, 5.5 h, and 6 h, respectively, after intragastric administration of corresponding microspheres, and 0.1 mL of blood was collected each time by each rat. After the vein blood collected from the rat in each groups at each time point was treated, the NAD+ level in the blood sample was tested by high performance liquid chromatography (HPLC). The test results of 4 rats in each group were averaged. […] There are time differences between a peak of the releasing of quercetin and a peak of the releasing of NMN in the controlled-release NMN microsphere 2, the controlled-release NMN microsphere 5, and the controlled-release NMN microsphere 6 that are prepared based on difference mass ratios of quercetin (the CD38 inhibitor) to NMN, and the time differences between a peak of the releasing of quercetin and a peak of the releasing of NMN in the three microspheres are consistent and are all about 0.5-1.5 h.

[3] = tested on: NAD+; test: Increasing the level of NAD+ by controlled-release NMN microspheres 2, 9, 10, blood NAD+ by HPLC (Example 15)
Method: as §1, with “10 mg/kg quercetin at” for “10 mg/kg of quercetin at”, “the controlled-release NMN microspheres 2” for “the controlled-release microspheres 1”, “NMN microspheres 2 containing 100” for “controlled-release microspheres 1 containing 100”, “NMN microspheres 9 containing 100” for “NMN microspheres 2 containing 100”, “NMN microspheres 10 containing 100” for “NMN microspheres 3 containing 100”
Blood was collected from each rat in the groups via the tail vein at time points of 2 h, 2.5 h, 3 h, 3.5 h, 4 h, 4.5 h, 5 h, 5.5 h, and 6 h, respectively, after intragastric administration of corresponding microspheres, and 0.1 mL of blood was collected each time by each rat. After the vein blood collected from each rat in the groups at each time point was treated, the NAD+ level in the blood sample was tested by high performance liquid chromatography (HPLC). The test results of 4 rats in each group were averaged. […] There are time differences between a peak of the releasing of quercetin and a peak of the releasing of NMN in the controlled-release NMN microsphere 2, the controlled-release NMN microsphere 9, and the controlled-release NMN microsphere 10 that are prepared based on different mass ratios of quercetin (the CD38 inhibitor) to the excipient and different mass ratios of NMN to the excipient, and the time differences between a peak of the releasing of quercetin and a peak of the releasing of NMN in the three microspheres are consistent and are all about 0.5-1.5 h.

| SMILES | level of NAD+ in the rat compared with the blank group (in words) [1] | NAD+ level in blood ([1]; 2 h) [µM] | NAD+ level in blood ([1]; 2.5 h) [µM] | NAD+ level in blood ([1]; 3 h) [µM] | NAD+ level in blood ([1]; 3.5 h) [µM] | NAD+ level in blood ([1]; 4 h) [µM] | NAD+ level in blood ([1]; 4.5 h) [µM] | NAD+ level in blood ([1]; 5 h) [µM] | NAD+ level in blood ([1]; 5.5 h) [µM] | NAD+ level in blood ([1]; 6 h) [µM] | level of NAD+ in the rat compared with the blank group (in words) [2] | NAD+ level in blood ([2]; 2 h) [µM] | NAD+ level in blood ([2]; 2.5 h) [µM] | NAD+ level in blood ([2]; 3 h) [µM] | NAD+ level in blood ([2]; 3.5 h) [µM] | NAD+ level in blood ([2]; 4 h) [µM] | NAD+ level in blood ([2]; 4.5 h) [µM] | NAD+ level in blood ([2]; 5 h) [µM] | NAD+ level in blood ([2]; 5.5 h) [µM] | NAD+ level in blood ([2]; 6 h) [µM] | further results |
| --- | --- | --- | --- | --- | --- | --- | --- | --- | --- | --- | --- | --- | --- | --- | --- | --- | --- | --- | --- | --- | --- |
| NC(=O)c1ccc[n+]([C@@H]2O[C@H](COP(=O)([O-])O)[C@@H](O)[C@H]2O)c1 [NMN, nicotinamide mononucleotide] | can increase the level of NAD+ in the rat | 139 | 207 | 173 | 159 | 150 | 145 | 148 | 152 | 147 | can increase the level of NAD+ in the rat | 133 | 197 | 168 | 159 | 143 | 148 | 139 | 144 | 140 | level of NAD+ in the rat compared with the blank group (in words) [3]: can increase the level of NAD+ in the rat; NAD+ level in blood ([3]; 2 h): 134 µM; NAD+ level in blood ([3]; 2.5 h): 193 µM; NAD+ level in blood ([3]; 3 h): 153 µM; NAD+ level in blood ([3]; 3.5 h): 168 µM; NAD+ level in blood ([3]; 4 h): 142 µM; NAD+ level in blood ([3]; 4.5 h): 137 µM; NAD+ level in blood ([3]; 5 h): 131 µM; NAD+ level in blood ([3]; 5.5 h): 138 µM; NAD+ level in blood ([3]; 6 h): 134 µM |
| O=c1c(O)c(-c2ccc(O)c(O)c2)oc2cc(O)cc(O)c12 [Quercetin, quercetin] | can increase the level of NAD+ in the rat | 145 | 152 | 178 | 160 | 147 | 150 | 151 | 144 | 149 | can increase the level of NAD+ in the rat | 127 | 146 | 180 | 164 | 151 | 144 | 147 | 130 | 137 | level of NAD+ in the rat compared with the blank group (in words) [3]: can increase the level of NAD+ in the rat; NAD+ level in blood ([3]; 2 h): 121 µM; NAD+ level in blood ([3]; 2.5 h): 140 µM; NAD+ level in blood ([3]; 3 h): 176 µM; NAD+ level in blood ([3]; 3.5 h): 158 µM; NAD+ level in blood ([3]; 4 h): 146 µM; NAD+ level in blood ([3]; 4.5 h): 138 µM; NAD+ level in blood ([3]; 5 h): 141 µM; NAD+ level in blood ([3]; 5.5 h): 124 µM; NAD+ level in blood ([3]; 6 h): 132 µM |
